According to patent EP4512427A1, “ANTIBODY-DRUG CONJUGATES BASED ON MOLECULAR GLUE DEGRADERS AND USES THEREOF” (Mablink Bioscience, priority 2023, dated 2025):

Key:
CycK mRNA = CycK mRNA by RT-qPCR; type: cell-based, human; conditions: JIMT-1 cells, 1µM, 2h
Experimental: 1×10^6 JIMT-1 cells were plated in 3mL of DMEM/FBS 90:10 (v/v) in 6-well plates and incubated overnight. Cells were treated with the compound 2384 of the invention, with CR8 (a known molecular glue degrader that depletes CycK) or with the proteasome inhibitor MG-132 (MedChemExpress, Cat HY-13259) for 2h. RNA was extracted using the QIAamp RNeasy Mini Kit (cat#74106, Qiagen) according to the manufacturer's protocol. Reverse transcription was performed using SuperScripr™ IV reverse transcriptase (cat#LT02241, Invitrogen). Quantitative PCR was performed using a No ROX Sybr Master Mix in the LightCycler 480 Real-Time PCR system (Roche Life Science).
Cyclin K forward ([…]) and reverse ([…]) primers were purchased from Eurogentec. Gene expression was normalized using ribosomal 28S as the housekeeping gene.

BCRP = molecular target: T1, BCRP (Homo sapiens, UniProt Q9UNQ0); assay: BCRP efflux substrate assay in MDCK-BCRP; type: in vitro ADME; conditions: dog, pH 7.4, MDCK-BCRP
T1 construct: host or cells: MDCK-BCRP (Preadyport)
T1 sequence (Q9UNQ0 1-655): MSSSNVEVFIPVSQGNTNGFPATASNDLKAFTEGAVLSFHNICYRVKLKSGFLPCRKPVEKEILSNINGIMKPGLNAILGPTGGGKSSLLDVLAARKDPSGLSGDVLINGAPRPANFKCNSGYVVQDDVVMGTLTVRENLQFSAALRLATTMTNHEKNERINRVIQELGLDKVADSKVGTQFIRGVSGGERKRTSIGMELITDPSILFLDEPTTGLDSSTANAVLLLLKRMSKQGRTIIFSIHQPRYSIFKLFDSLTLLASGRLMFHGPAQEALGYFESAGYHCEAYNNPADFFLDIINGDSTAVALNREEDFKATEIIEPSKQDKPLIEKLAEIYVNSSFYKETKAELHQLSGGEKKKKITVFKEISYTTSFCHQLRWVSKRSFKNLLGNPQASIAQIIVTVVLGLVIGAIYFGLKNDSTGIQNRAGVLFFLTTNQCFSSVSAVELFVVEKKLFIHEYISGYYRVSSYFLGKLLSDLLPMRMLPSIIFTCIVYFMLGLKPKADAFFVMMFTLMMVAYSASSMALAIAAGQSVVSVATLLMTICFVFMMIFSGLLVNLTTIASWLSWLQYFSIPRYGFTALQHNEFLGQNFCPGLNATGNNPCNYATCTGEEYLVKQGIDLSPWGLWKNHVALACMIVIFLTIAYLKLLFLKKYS
Experimental: (§1) MDR1 and BCRP efflux substrate assays were conducted in MDCK-MDR1 and MDCK-BCRP in vitro models (Preadyport™, Solvo Biotech) at Symeres (Nederland). Compound of the invention (donor well concentration of 5µM) were incubated in cell monolayer 24-transwell Preadyport system, using Preadyport recommended pH 7.4 assay buffer (donor and receiver wells). After 60 min of incubation (no shaking), samples are collected and suspended into triple volume of 66% cold acetonitrile. Samples are stored at -20°C until thawed, centrifuged and analyzed by LC-MS. Quinidine was used a positive control for the MDR1 assay, and prazosin was used as a positive control for the BCRP assay. Exatecan was used as a control, known not to be an MDR1 substrate. Residual DMSO content from compounds stock solutions was below 1% (v/v). The assay was performed in duplicate. The quantification of test compounds in donor or receptor compartment is conducted using relative LC/MS peak areas (samples of initial incubation solutions are used as a single point calibrator), without any spiked standard samples. The data is used for estimating apparent permeability (Papp) and calculation of efflux ratio.

MDR1 = molecular target: T2, MDR1 (Homo sapiens, UniProt P08183); assay: MDR1 efflux substrate assay in MDCK-MDR1; type: in vitro ADME; conditions: dog, MDCK-MDR1, 5µM, 60 min, pH 7.4
T2 construct: host or cells: MDCK-MDR1 (Preadyport)
T2 sequence (P08183 whole entry): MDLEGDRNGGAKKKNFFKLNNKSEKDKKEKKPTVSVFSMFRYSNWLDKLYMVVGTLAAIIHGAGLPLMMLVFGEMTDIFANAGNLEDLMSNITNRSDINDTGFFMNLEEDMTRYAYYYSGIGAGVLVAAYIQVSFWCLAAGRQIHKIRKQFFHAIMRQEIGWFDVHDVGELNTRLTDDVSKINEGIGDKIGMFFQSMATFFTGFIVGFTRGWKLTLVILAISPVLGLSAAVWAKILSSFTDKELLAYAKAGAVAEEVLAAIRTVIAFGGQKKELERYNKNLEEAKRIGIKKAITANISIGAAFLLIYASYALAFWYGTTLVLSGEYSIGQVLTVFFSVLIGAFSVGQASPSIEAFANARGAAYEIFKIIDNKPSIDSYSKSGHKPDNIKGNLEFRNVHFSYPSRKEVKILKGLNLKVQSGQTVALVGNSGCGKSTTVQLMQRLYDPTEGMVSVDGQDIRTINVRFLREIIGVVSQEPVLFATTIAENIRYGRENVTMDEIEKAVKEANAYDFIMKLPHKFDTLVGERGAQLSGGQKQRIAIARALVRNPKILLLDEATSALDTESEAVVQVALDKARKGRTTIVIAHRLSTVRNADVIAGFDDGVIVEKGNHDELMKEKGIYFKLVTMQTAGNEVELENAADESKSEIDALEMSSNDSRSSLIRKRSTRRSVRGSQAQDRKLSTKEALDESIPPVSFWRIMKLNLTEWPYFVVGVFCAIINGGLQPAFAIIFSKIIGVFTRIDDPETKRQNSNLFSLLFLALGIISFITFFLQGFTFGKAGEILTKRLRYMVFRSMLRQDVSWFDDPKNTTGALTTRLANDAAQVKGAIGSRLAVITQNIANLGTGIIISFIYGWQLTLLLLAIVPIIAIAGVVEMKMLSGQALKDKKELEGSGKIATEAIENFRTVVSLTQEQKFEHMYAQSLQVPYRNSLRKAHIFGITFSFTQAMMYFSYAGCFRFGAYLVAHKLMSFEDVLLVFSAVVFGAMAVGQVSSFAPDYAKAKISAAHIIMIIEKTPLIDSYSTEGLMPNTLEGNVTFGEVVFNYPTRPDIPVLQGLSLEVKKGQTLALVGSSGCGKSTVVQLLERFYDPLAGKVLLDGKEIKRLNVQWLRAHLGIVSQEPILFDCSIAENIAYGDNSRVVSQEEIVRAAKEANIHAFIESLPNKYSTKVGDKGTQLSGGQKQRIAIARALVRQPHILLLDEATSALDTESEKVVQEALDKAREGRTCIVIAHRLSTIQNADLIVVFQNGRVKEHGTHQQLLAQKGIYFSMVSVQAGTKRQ
Experimental: as §1

JIMT-1 cells = assay: Cell cycle arrest assessment (propidium iodide); type: cell-based, human; conditions: 24h at 2, 5, 10, and 50nM
Experimental: 1×10^6 JIMT-1 cells were plated in 3mL of DMEM/FBS 90:10 (v/v) in 6-well plates and incubated overnight. Cells were treated with the compound 2384 of the invention or with CR8 for 24h. Cells were then harvested and washed three times with PBS. Cells were suspended into 300µL of propidium iodide working solution (0.05mg/mL) and incubated for 45 minutes at 4°C in the dark. Analysis was performed using a BD Fortessa flow cytometer controlled by BD FACSDiva software (BD Biosciences) and data were analyzed using FlowJo software (BD Bioscience).

340 protein kinases = assay: Kinase screening assay (radiometric 33PanQinase); type: biochemical, human; conditions: 10 µM; most inhibited kinases: CMGC family, particularly CDKs (23 out of the 30 most inhibited were CDK/Cyclin complexes)
Experimental: Compound 2384 according to the disclosure was subjected to kinase screening assays (performed at Reaction Biology, Germany). The screening assay was performed at a final compound concentration of 10 µM. A radiometric protein kinase assay (33PanQinase® ActivityAssay) was used for measuring the kinase activity of 340 protein kinases. All kinase assays were performed in 96-well FlashPlates™ from Perkin Elmer (Boston, MA, USA) in a 50 µL reaction volume. […] All PKC assays (except the PKC-mu and the PKC-nu assay) additionally contained 1 mM CaCl2, 4 mM EDTA, 5 µg/m! Phosphatidylserine and 1 µg/m! 1,2-Dioleyl-glycerol. The CAMK1D, CAMK2A, CAMK2B, CAMK2D, CAMK2G, CAMK4, CAMKK1, CAMKK2, DAPK2, EEF2K, MYLK, MYLK2 and MYLK3 assays additionally contained 1 µg/ml Calmodulin and 0.5 mM CaCl2. The PRKG1 and PRKG2 assays additionally contained 1 µM cGMP. The DNA-PK assay additionally contained 2.5 µg/ml DNA. The protein kinase reaction cocktails were incubated at 30°C for 60 minutes. The reaction was stopped with 50 µl of 2 % (v/v) H3PO4, plates were aspirated and washed two times with 200 µL 0.9 % (w/v) NaCl. Incorporation of 33Pi (counting of "cpm") was determined with a microplate scintillation counter (Microbeta, Wallac). All protein kinase assays were performed with a BeckmanCoulter Biomek 2000/SL robotic system. […]

## N[C@H]1CC[C@H](Nc2nc(NCc3ccc(-c4ccccn4)cc3)n3ncc(Br)c3n2)CC1 [Compound 2384]
CycK mRNA
  CycK mRNA level: not at the CycK mRNA level
BCRP; read-out: Efflux ratio B/A
  efflux ratio at 1 h, 5 µM: 9.24
BCRP; 5µM, 60 min, read-out: Papp A (donor) to B (acceptor)
  Papp A→B at 1 h, 5 µM: 5.49 ×10⁻⁶ cm/s
BCRP; 5µM, 60 min, read-out: Papp B (acceptor) to A (donor)
  Papp B→A at 1 h, 5 µM: 50.7 ×10⁻⁶ cm/s
MDR1; read-out: Papp A (donor) to B (acceptor)
  Papp A→B at 1 h, 5 µM: < 0.25 ×10⁻⁶ cm/s
MDR1; read-out: Papp B (acceptor) to A (donor)
  Papp B→A at 1 h, 5 µM: 36.9 ×10⁻⁶ cm/s
JIMT-1 cells
  cell cycle analysis: arrest in the G2/M phase
340 protein kinases
  inhibition of kinase activity: more than 90%
